≈ marks a conversion by molar mass, not a printed value. Like-named read-outs stand apart in the source and are kept apart here.
Tested on: Neisseria gonorrhoeae, GC525 (NG-2888)
Assay: in-vitro antibacterial activity, microbroth dilution MIC susceptibility testing
Format: cell-based
Design: unit: ug/mL
Conditions: microbroth dilution in gonococcal broth, 20-24 hours at 35 C, lowest concentration preventing visible growth
Experimental: The in-vitro antibacterial activity of selected compounds was determined against a stain of Neisseria gonorrhoeae, GC525 (NG-2888), which is described by Rouquette-Loughlin et al, in Journal of Bacteriology, February 2003, p. 1101-1106, at p. 1103. In general, minimum inhibitory concentration (MIC) susceptibility testing followed procedures recommended by the National Committee for Clinical Laboratory Standards (NCCLS^1-2) or followed the descriptions described below:
Neisseria gonorrhoeae strains were grown on Chocolate Agar II plates (BBL—Becton Dickinson Microbiology Systems, Cockeysville, Md.) and incubated at 35° C. in a humidified 5% CO2 incubator (Form a Scientific, Marietta Ohio). For microbroth dilution MIC testing, N. gonorrhoeae were tested in gonococcal broth (GCB):
Gram stains were also utilized. Permanent Stock Culture Collection
Bacterial stock cultures are stored as frozen suspensions at −70 C. N. gonorrhoeae cultures are suspended in inactivated Horse Serum (Colorado Serum Company, Denver, Colo.) containing 7.5% glucose prior to snap freezing in a dry ice/ethanol bath.
Preparation of Standardized Test Inocula and Plate Inoculation
Frozen stock cultures were used as the initial source of organisms for performing microbroth dilution MIC testing. Stock cultures were passed on their respective growth medium at least one growth cycle (18-24 hours) prior to their use. Bacterial culture suspensions were prepared directly from Chocolate Agar II plates into 10 mL cation-adjusted Mueller-Hinton Broth (CAMHB, BBL, # BB215069). Before use, cultures were adjusted to an optical density value of 1.6-2 on a Perkin-Elmer Lambda EZ150 Spectrophotometer (Wellesley, Mass.) set at a wavelength of 600 nm. Random cultures were plated for validation of actual colony counts. The adjusted cultures were diluted 400-fold (0.25 mL inoculum+100 mL GCB) into gonococcal broth producing a starting inoculum of approximately 5×10^5 cfu/mL. These cultures were inoculated into test plates (100 uL/well) using a Biomek® FX workstation (Beckman Coulter Inc., Fullerton, Calif.). The inoculated plates were placed in stacks of no more than 4 and covered with an empty plate. Plates were incubated for 20-24 hours at 35 C in a humidified CO2 incubator.
Test Compound (“Drug”) Preparation
Drug stock solutions (2 mg/mL in DMSO) were prepared on the day of testing. Drugs were weight corrected for assay content where necessary.
Drug Dilution Tray Preparation
Microbroth dilution stock plates were prepared in two dilution series, 64-0.06 ug drug/mL and 1-0.001 ug drug/mL. For the high concentration series, 200 uL of stock solution (2 mg/mL) was added to duplicate rows of a 96-well plate. This was used as the first well in the dilution series. Serial two-fold decremental dilutions were made using a BioMek FX robot (Beckman Coulter Inc., Fullerton, Calif.) with 10 of the remaining 11 wells, each of which contained 100 uL of the appropriate solvent/diluent. Row 12 contained solvent/diluent only and served as the control. For tube one of the low concentration series, 200 uL of a 31.25 ug/mL stock was added to duplicate rows of a 96-well plate. Serial two-fold dilutions were made as described above.
Daughter plates were spotted (3.2 uL/well) from the stock plates listed above using the BioMek FX robot and were inoculated with organism (100 uL/well) as described previously.
After incubation, the degree of growth in each well was read visually with the aid of a Test Reading Mirror (Dynatech Lab 220-16, Dynex Technologies, Chantilly, Va.). 96-well test plates are read in a darkened room with a single light shining from above. The MIC is the lowest concentration of drug that prevents macroscopically visible growth under the conditions of the test. […] If MIC values in duplicate tests differ by 1 well (two-fold), the […] value is reported. If duplicate tests vary by 2 dilutions (four-fold), the middle value is reported.

[1] = Neisseria gonorrhoeae, read-out: MIC

SMILES	MIC [1] [mg/L]	MIC [mg/L]
CCNC(=O)Nc1nc2cc(-c3cnccc3OC)cc(C(=O)NCC)n2n1 [Example 32, 2-(3-Ethyl-ureido)-7-(4-methoxy-pyridin-3-yl)-[1,2,4]triazolo[1,5-a]pyridine-5-carboxylic acid ethyl amide]	1 (≈ 2.61 µM)	–
CCNC(=O)Nc1nc2cc(-c3cccnc3)cc(N(C)C3CCN(C)C3)n2n1 (stereo not drawn) [Example 150, 1-Ethyl-3-(5-[methyl-(1-methyl-pyrrolidin-3-yl)-amino]-7-pyridin-3-yl-[1,2,4]triazolo[1,5-a]pyridin-2-yl)-urea]	32 (≈ 81.1 µM)	–
CCNC(=O)Nc1nc2cc(-c3cccnc3)cc(C(=O)NC3CCOC3)n2n1 (stereo not drawn) [Example 45, 2-(3-Ethyl-ureido)-7-pyridin-3-yl-[1,2,4]triazolo[1,5-a]pyridine-5-carboxylic acid (tetrahydro-furan-3-yl)-amide]	> 64	–
CCNC(=O)Nc1cn2c(CN3CCCC3)cc(-c3cccnc3)cc2n1 [Example 113, 1-Ethyl-3-(7-pyridin-3-yl-5-pyrrolidin-1-ylmethyl-imidazo[1,2-a]pyridin-2-yl)-urea]	64 (≈ 176 µM)	–
CCNC(=O)Nc1cn2c(C(=O)OCC)cc(-c3ccc(OC)cc3)cc2n1 [Example 118, 2-(3-Ethyl-ureido)-7-(4-methoxy-phenyl)-imidazo[1,2-a]pyridine-5-carboxylic acid ethyl ester]	–	>64.0
CCNC(=O)Nc1nc2cc(-c3cccnc3)cc(C(=O)N(C)C(C)c3ccncc3)n2n1 (stereo not drawn) [Example 86, 2-(3-Ethyl-ureido)-7-pyridin-3-yl-[1,2,4]triazolo[1,5-a]pyridine-5-carboxylic acid methyl-(1-pyridin-4-yl-ethyl)-amide]	16 (≈ 36 µM)	–
CCNC(=O)Nc1nc2cc(-c3cccnc3)cc(-c3ccc(OC)nc3)n2n1 [Example 142, N-Ethyl-N′-[5-(6-methoxypyridin-3-yl)-7-pyridin-3-yl[1,2,4]triazolo[1,5-a]pyridin-2-yl]urea]	16 (≈ 41.1 µM)	–
CCNC(=O)Nc1nc2cc(-c3cccnc3)cc(-c3cnc(C)n3C)n2n1 [Example 135, N-[5-(1,2-Dimethyl-1H-imidazol-5-yl)-7-pyridin-3-yl[1,2,4]triazolo[1,5-a]pyridin-2-yl]-N′-ethylurea]	8 (≈ 21.3 µM)	–
CCNC(=O)Nc1nc2cc(-c3cccc(C(F)(F)F)c3)cc(C(=O)NCC)n2n1 [Example 99, 2-(3-Ethyl-ureido)-7-(3-trifluoromethyl-phenyl)-[1,2,4]triazolo[1,5-a]pyridine-5-carboxylic acid ethylamide]	8 (≈ 19 µM)	–
CCNC(=O)Nc1nc2cc(-c3cccnc3)cc(-c3nc(CC)cs3)n2n1 [Example 122, 1-Ethyl-3-[5-(4-ethyl-thiazol-2-yl)-7-pyridin-3-yl-[1,2,4]triazolo[1,5-a]pyridin-2-yl]-urea]	0.06 (≈ 0.152 µM)	–
CCNC(=O)Nc1nc2cc(N3CCCC3)cc(C(=O)N3CCCC3)n2n1 [Example 121, 1-Ethyl-3-[5-(pyrrolidine-1-carbonyl)-7-pyrrolidin-1-yl-[1,2,4]triazolo[1,5-a]pyridin-2-yl]-urea]	64 (≈ 172 µM)	–
CCNC(=O)Nc1nc2cc(-c3ccncc3Cl)cc(C(=O)NCC)n2n1 [Example 95, 7-(3-Chloro-pyridin-4-yl)-2-(3-ethyl-ureido)-[1,2,4]triazolo[1,5-a]pyridine-5-carboxylic acid ethylamide]	32 (≈ 82.5 µM)	–
CCNC(=O)Nc1nc2cc(-c3cccnc3)cc(C(=O)N(Cc3ccncc3)CC3CCCO3)n2n1 (stereo not drawn) [Example 92, 2-(3-Ethyl-ureido)-7-pyridin-3-yl-[1,2,4]triazolo[1,5-a]pyridine-5-carboxylic acidpyridin-4-ylmethyl-(tetrahydro-furan-2-ylmethyl)-amide]	8 (≈ 16 µM)	–
CCNC(=O)Nc1nc2cc(-c3cccnc3)cc(-c3cncs3)n2n1 [Example 125, 1-Ethyl-3-[5-(thiazol-5-yl)-7-pyridin-3-yl-[1,2,4]triazolo[1,5-a]pyridin-2-yl]-urea]	0.06 (≈ 0.164 µM)	–
CCNC(=O)Nc1nc2cc(-c3cccnc3)cc(C(=O)NCC3CC3)n2n1 [Example 10, 2-(3-Ethyl-ureido)-7-pyridin-3-yl-[1,2,4]triazolo[1,5-a]pyridine-5-carboxylic acid cyclopropylmethyl-amide]	8 (≈ 21.1 µM)	–

Reference: patent US7524860B2, “Antibacterial agents” (Pfizer Inc., priority 2004, dated 2009)
